Data as given in ChEMBL document CHEMBL5257024, “Synthesis of α,β-Unsaturated Carbonyl-Based Compounds, Oxime and Oxime Ether Analogs as Potential Anticancer Agents for Overcoming Cancer Multidrug Resistance by Modulation of Efflux Pumps in Tumor Cells” (J Med Chem, 2016).

What was measured:
NCI-H460 = assay: cells; conditions: Homo sapiens, NCI-H460, 48 h
Description: Antiproliferative activity against human NCI-H460 cells assessed as inhibition of cell growth incubated for 48 hrs by propidium iodide staining based fluorometer assay

MIA PaCa-2 = assay: Antiproliferative activity against human MIA PaCa-2 cells assessed as inhibition of cell growth incubated for 48 hrs by propidium iodide staining based fluorometer assay; format: functional; conditions: MIA PaCa-2, 48 h
A549 = assay: Antiproliferative activity against human A549 cells assessed as inhibition of cell growth incubated for 48 hrs by propidium iodide staining based fluorometer assay; format: functional; conditions: A549, 48 h
MCF7 = assay: Antiproliferative activity against human MCF7 cells assessed as inhibition of cell growth incubated for 48 hrs by propidium iodide staining based fluorometer assay; format: functional; conditions: MCF7, 48 h
HT-29 = assay: cells; conditions: Homo sapiens, HT-29, 48 h
Description: Antiproliferative activity against human HT-29 cells assessed as inhibition of cell growth incubated for 48 hrs by propidium iodide staining based fluorometer assay

PANC-1 = assay: cells; conditions: Homo sapiens, PANC-1, 48 h
Description: Antiproliferative activity against human PANC-1 cells assessed as inhibition of cell growth incubated for 48 hrs by propidium iodide staining based fluorometer assay

[1] = Cytotoxicity against human MCF-10A cells assessed as cell viability incubated for 96 hrs by MTT assay; format: toxicity, cell-based; set-up: concentration or dose not given beside the values; conditions: read-out: Activity
PC-3 = assay: cells; conditions: Homo sapiens, PC-3, 48 h
Description: Antiproliferative activity against human PC-3 cells assessed as inhibition of cell growth incubated for 48 hrs by propidium iodide staining based fluorometer assay

Row | Compound | IC50 (NCI-H460) | IC50 (MIA PaCa-2) | IC50 (A549) | IC50 (MCF7) | IC50 (HT-29) | IC50 (PANC-1) | viability at 96 h [1] | IC50 (PC-3)
1 | COc1cc(/C=C2\CCC/C(=C\c3cc(OC)c(OC)c(OC)c3Br)C2=O)c(Br)c(OC)c1OC | 2.6 µM | 2.6 µM | 2.6 µM | 3.1 µM | 2 µM | 2.4 µM | 89% | 2.9 µM
2 | COc1ccc(/C=C2\CNC/C(=C\c3ccc(OC)c(OC)c3Cl)C2=O)c(Cl)c1OC | 7.2 µM | 6.2 µM | 7.5 µM | 6.4 µM | 6.6 µM | 6.5 µM | 92% | 7 µM
3 | COc1cc(/C=C2\CCc3ccc(Br)cc3C2=O)c(Br)c(OC)c1OC | 10.9 µM | 9 µM | 9.1 µM | 10.9 µM | 9.2 µM | 9.9 µM | 92% | 9.3 µM
4 | COc1ccc(/C=C2\CN(C)C/C(=C\c3ccc(OC)c(OC)c3Cl)C2=O)c(Cl)c1OC | 3.5 µM | 3.2 µM | 3.9 µM | 3.3 µM | 3.8 µM | 3.4 µM | 90% | 3.3 µM
5 | COc1cccc(/C=C2\CNC/C(=C\c3cccc(OC)c3Cl)C2=O)c1Cl | 7.3 µM | 7.7 µM | 7.3 µM | 8.4 µM | 7.4 µM | 7.5 µM | 94% | 7.6 µM
6 | COc1cccc(/C=C2\CC(C)C/C(=C\c3cccc(OC)c3Cl)C2=O)c1Cl (configuration not stated) | 4.2 µM | 2.9 µM | 3.1 µM | 2.8 µM | 3.4 µM | 3.3 µM | 93% | 3.9 µM
7 | COc1cc(/C=C2\CCc3ccc([N+](=O)[O-])cc3C2=O)c(Br)c(OC)c1OC | 1.3 µM | 1.5 µM | 1.3 µM | 1.4 µM | 1.4 µM | 1.2 µM | 88% | 1.4 µM
8 | COc1cccc(/C=C2\CN(C)C/C(=C\c3cccc(OC)c3Cl)C2=O)c1Cl | 4 µM | 4.6 µM | 4 µM | 4.4 µM | 4.4 µM | 4.2 µM | 91% | 4.9 µM
9 | COc1cc(/C=C2\CC(C(C)C)C/C(=C\c3cc(OC)c(OC)c(OC)c3Br)C2=O)c(Br)c(OC)c1OC (configuration not stated) | 7.4 µM | 7.5 µM | 7.6 µM | 8.1 µM | 6.7 µM | 7.2 µM | 89% | 7.2 µM
10 | COc1cccc(/C=C2\CCc3ccc([N+](=O)[O-])cc3C2=O)c1Cl | 3.1 µM | 3.4 µM | 3.6 µM | 3.3 µM | 3.5 µM | 3.5 µM | 95% | 3.1 µM
11 | COc1cc(/C=C2\CN(C)C/C(=C\c3cc(OC)c(OC)c(OC)c3Br)C2=O)c(Br)c(OC)c1OC | 1.8 µM | 1.9 µM | 1.3 µM | 1.9 µM | 1.1 µM | 1.8 µM | 92% | 1.6 µM
12 | COc1cccc(/C=C2\CN(Cc3ccccc3)C/C(=C\c3cccc(OC)c3Cl)C2=O)c1Cl | 14.1 µM | 17 µM | 15.4 µM | 17.6 µM | 15.9 µM | 17.5 µM | 89% | 18.7 µM
13 | COc1cc(/C=C2\CN(Cc3ccccc3)C/C(=C\c3cc(OC)c(OC)c(OC)c3Br)C2=O)c(Br)c(OC)c1OC | 12.3 µM | 11.9 µM | 11.1 µM | 12.8 µM | 12 µM | 12.2 µM | 91% | 14.6 µM
14 | COc1ccc(OC)c2c1CC/C(=C\c1ccc(OC)c(OC)c1Cl)C2=O | 3.8 µM | 3.9 µM | 4.3 µM | 4.1 µM | 4 µM | 4.3 µM | 90% | 4.5 µM
15 | CCN(CC)CCO/N=C1\C(=C\c2cc(OC)c(OC)c(OC)c2Br)CCc2c(OC)ccc(OC)c21 | 2.9 µM | 2.1 µM | 2.1 µM | 2.2 µM | 2.9 µM | 2.7 µM | 95% | 2.2 µM
16 | COc1cccc(/C=C2\CCc3c(OC)ccc(OC)c3C2=O)c1Cl | 7.9 µM | 6.7 µM | 8.8 µM | 7.2 µM | 7.1 µM | 7.4 µM | 98% | 7.2 µM
17 | COc1cc(/C=C2\COC/C(=C\c3cc(OC)c(OC)c(OC)c3Br)C2=O)c(Br)c(OC)c1OC | 5 µM | 4.6 µM | 4.1 µM | 4.3 µM | 4.2 µM | 4.9 µM | 92% | 4.6 µM

Row | Compound | IC50 (NCI-H460) | IC50 (MIA PaCa-2) | IC50 (A549) | IC50 (MCF7) | IC50 (HT-29) | IC50 (PANC-1) | viability at 96 h [1] | IC50 (PC-3)
18 | COc1ccc(/C=C2\CCc3ccc(F)cc3C2=O)c(Cl)c1OC | 10.6 µM | 9.6 µM | 10.9 µM | 9.8 µM | 9.4 µM | 9.8 µM | 95% | 9.3 µM
19 | COc1cccc(/C=C2\CCc3ccc(Cl)cc3C2=O)c1Cl | 13.3 µM | 12.8 µM | 13.3 µM | 14.1 µM | 12.6 µM | 12.4 µM | 94% | 13.7 µM
20 | COc1ccc(/C=C2\CCC/C(=C\c3ccc(OC)c(OC)c3Cl)C2=O)c(Cl)c1OC | 4.1 µM | 4.2 µM | 3.9 µM | 4.7 µM | 3.7 µM | 4.2 µM | 90% | 5.2 µM
21 | COc1ccc(/C=C2\CCc3c(O)cccc3C2=O)c(Cl)c1OC | 3.8 µM | 3.2 µM | 3.3 µM | 3.1 µM | 3 µM | 3.6 µM | 91% | 3.5 µM
22 | COc1cc(/C=C2\CCc3ccccc3C2=O)c(Br)c(OC)c1OC | 22.2 µM | 23.7 µM | 22.6 µM | 20.4 µM | 21.2 µM | 21.3 µM | 94% | 22 µM
23 | COc1cc2c(cc1OC)C(=O)/C(=C/c1cc(OC)c(OC)c(OC)c1Br)CC2 | 2.2 µM | 2.4 µM | 2.2 µM | 2.8 µM | 2.8 µM | 2.6 µM | 98% | 2 µM
24 | COc1ccc(/C=C2\CCc3ccc(Cl)cc3C2=O)c(Cl)c1OC | 10.6 µM | 9.5 µM | 10.7 µM | 9.1 µM | 10.9 µM | 10.5 µM | 94% | 10.8 µM
25 | COc1cc(/C=C2\CCc3c(O)cccc3C2=O)c(Br)c(OC)c1OC | 1.9 µM | 1.9 µM | 1.6 µM | 1.8 µM | 1.9 µM | 1.9 µM | 93% | 2.2 µM
26 | COc1ccc(/C=C2\CC(C)c3ccccc3C2=O)c(Cl)c1OC (configuration not stated) | 7.9 µM | 7.2 µM | 7.7 µM | 7.2 µM | 7.2 µM | 7.5 µM | 99% | 7.3 µM
27 | COc1cccc(/C=C2\CCC/C(=C\c3cccc(OC)c3Cl)C2=O)c1Cl | 5.4 µM | 7.2 µM | 8.1 µM | 6.5 µM | 6.1 µM | 6.9 µM | 90% | 6.4 µM
28 | COc1ccc(/C=C2\CC(C)C/C(=C\c3ccc(OC)c(OC)c3Cl)C2=O)c(Cl)c1OC (configuration not stated) | 2.9 µM | 3 µM | 4.4 µM | 3.2 µM | 2.9 µM | 3.2 µM | 94% | 3.7 µM
29 | COc1ccc(/C=C2\CCc3ccc(Br)cc3C2=O)c(Cl)c1OC | 11.1 µM | 10.6 µM | 10.3 µM | 11.1 µM | 10.5 µM | 10.8 µM | 92% | 10.4 µM
30 | COc1cccc2c1CC/C(=C\c1cc(OC)c(OC)c(OC)c1Br)C2=O | 4.7 µM | 4.6 µM | 4.5 µM | 5.7 µM | 3.9 µM | 4.2 µM | 94% | 3.9 µM
31 | COc1cccc(/C=C2\CCc3c(O)cccc3C2=O)c1Cl | 4.9 µM | 4.9 µM | 4.4 µM | 4.4 µM | 5.1 µM | 4.2 µM | 96% | 5.2 µM
32 | COc1cccc(/C=C2\CCc3c(OC)cccc3C2=O)c1Cl | 9 µM | 8.7 µM | 6.4 µM | 9 µM | 8.4 µM | 8.5 µM | 93% | 8.4 µM
33 | COc1cccc(/C=C2\CCc3ccc(Br)cc3C2=O)c1Cl | 12.9 µM | 12.8 µM | 13.3 µM | 14.1 µM | 14 µM | 13.4 µM | 94% | 13.7 µM
34 | COc1ccc(/C=C2\CCc3ccccc3C2=O)c(Cl)c1OC | 22.9 µM | 23.2 µM | 23.3 µM | 20.5 µM | 26.5 µM | 24.5 µM | 96% | 23.4 µM
